Laboratory results from ChEMBL document CHEMBL4477208, “Discovery and Rational Design of Pteridin-7(8H)-one-Based Inhibitors Targeting FMS-like Tyrosine Kinase 3 (FLT3) and Its Mutants” (J Med Chem, 2016).

Legend:
[1] = tested on: MV4-11; test: Induction of apoptosis in human MV4-11 cells assessed as late apoptotic cells at 1 nM after 48 hrs by annexin V/propidium iodide staining based FACS analysis (reference value: 3.01%); format: functional
[2] = tested on: SW-620; test: Antiproliferative activity against human SW620 cells after 72 hrs by SRB assay; format: functional, cell-based; conditions: SW-620, 72 h
[3] = target: Receptor-type tyrosine-protein kinase FLT3 (Homo sapiens, UniProt P36888, F691L/ITD); test: Binding affinity to human partial length FLT3 ITD/F691L mutant expressed in mammalian expression system after 1 hr
[4] = Cmax in overnight fasted Sprague-Dawley rat plasma at 10 mg/kg administered via oral gavage up to 24 hrs by LC-MS/MS analysis; format: ADME, organism-based; design: dose 10 mg/kg, route oral
[5] = tested on: MV4-11; test: Induction of apoptosis in human MV4-11 cells assessed as necrotic cells at 100 nM after 48 hrs by annexin V/propidium iodide staining based FACS analysis (reference value: 0.05%); format: functional
[6] = target: T1, Receptor-type tyrosine-protein kinase FLT3 (Homo sapiens, UniProt P36888); test: Binding affinity to human partial length wild type FLT3 (592 to 969 residues) expressed in bacterial expression system after 1 hr
T1 sequence (P36888 whole entry): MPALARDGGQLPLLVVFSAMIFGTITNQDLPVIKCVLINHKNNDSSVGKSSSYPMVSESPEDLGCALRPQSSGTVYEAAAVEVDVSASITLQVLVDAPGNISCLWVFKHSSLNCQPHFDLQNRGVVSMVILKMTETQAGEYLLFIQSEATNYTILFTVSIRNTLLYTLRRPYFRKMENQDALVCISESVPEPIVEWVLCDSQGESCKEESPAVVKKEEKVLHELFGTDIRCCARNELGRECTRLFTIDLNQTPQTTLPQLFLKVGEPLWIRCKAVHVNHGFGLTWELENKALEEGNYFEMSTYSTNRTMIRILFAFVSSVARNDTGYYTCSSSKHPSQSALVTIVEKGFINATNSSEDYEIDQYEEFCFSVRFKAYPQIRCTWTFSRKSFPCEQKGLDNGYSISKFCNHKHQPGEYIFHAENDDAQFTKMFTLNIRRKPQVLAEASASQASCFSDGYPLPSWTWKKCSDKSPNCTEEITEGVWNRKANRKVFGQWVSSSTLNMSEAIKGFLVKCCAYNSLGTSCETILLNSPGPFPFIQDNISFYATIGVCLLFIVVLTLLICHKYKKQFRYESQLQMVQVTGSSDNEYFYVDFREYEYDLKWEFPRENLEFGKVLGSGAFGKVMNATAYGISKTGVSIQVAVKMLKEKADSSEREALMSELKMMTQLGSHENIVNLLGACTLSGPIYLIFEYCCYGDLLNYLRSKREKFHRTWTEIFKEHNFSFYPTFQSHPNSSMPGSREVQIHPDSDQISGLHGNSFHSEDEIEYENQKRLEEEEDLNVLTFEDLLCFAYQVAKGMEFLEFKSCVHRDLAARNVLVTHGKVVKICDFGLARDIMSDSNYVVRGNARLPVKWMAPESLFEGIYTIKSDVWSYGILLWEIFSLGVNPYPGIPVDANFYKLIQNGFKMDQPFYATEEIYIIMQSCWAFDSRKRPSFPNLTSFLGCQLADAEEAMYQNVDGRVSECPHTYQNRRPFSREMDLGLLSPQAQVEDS

[7] = target: Platelet-derived growth factor receptor beta (Homo sapiens) (UniProt P09619); test: Inhibition of human PDGFRB expressed in bacterial system assessed as remaining enzyme activity at 1 uM relative to untreated control
Sequence of Platelet-derived growth factor receptor beta (Homo sapiens) (P09619 whole entry): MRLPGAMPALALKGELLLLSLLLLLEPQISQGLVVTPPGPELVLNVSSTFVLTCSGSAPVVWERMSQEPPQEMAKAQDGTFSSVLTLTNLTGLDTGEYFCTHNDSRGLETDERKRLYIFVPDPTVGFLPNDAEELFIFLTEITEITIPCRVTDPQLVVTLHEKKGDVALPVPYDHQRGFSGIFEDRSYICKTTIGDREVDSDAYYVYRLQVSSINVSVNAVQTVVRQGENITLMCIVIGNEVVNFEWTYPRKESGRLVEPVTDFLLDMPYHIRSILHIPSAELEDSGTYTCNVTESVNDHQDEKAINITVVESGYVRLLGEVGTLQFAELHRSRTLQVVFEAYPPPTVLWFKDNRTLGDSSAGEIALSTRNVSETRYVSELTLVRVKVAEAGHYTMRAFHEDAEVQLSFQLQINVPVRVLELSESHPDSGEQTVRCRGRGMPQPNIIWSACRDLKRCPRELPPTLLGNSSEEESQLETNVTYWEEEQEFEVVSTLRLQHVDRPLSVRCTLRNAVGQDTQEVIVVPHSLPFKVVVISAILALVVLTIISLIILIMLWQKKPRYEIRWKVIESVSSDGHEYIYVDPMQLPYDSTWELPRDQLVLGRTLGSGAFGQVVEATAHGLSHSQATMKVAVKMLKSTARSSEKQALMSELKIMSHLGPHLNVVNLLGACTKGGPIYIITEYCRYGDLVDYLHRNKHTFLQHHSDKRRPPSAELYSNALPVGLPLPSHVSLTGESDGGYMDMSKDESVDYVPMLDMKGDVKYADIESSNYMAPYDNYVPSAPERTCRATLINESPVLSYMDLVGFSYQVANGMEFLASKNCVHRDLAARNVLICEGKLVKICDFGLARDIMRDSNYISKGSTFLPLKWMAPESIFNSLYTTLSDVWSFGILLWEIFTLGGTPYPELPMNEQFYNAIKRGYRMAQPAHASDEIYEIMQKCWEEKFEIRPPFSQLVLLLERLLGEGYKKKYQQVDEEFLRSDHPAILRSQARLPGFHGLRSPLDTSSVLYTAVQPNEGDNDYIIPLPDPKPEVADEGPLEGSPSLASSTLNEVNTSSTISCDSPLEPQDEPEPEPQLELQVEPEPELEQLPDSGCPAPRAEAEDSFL

[8] = tested on: MV4-11; test: Induction of apoptosis in human MV4-11 cells assessed as early apoptotic cells at 10 nM after 48 hrs by annexin V/propidium iodide staining based FACS analysis (reference value: 6.31%); format: functional
[9] = AUC (0 to infinity) in overnight fasted Sprague-Dawley rat plasma at 1 mg/kg, iv up to 24 hrs by LC-MS/MS analysis; format: ADME, organism-based; design: dose 1 mg/kg, route intravenous, time infinity
[10] = Volume of distribution at steady state in overnight fasted Sprague-Dawley rat plasma at 1 mg/kg, iv up to 24 hrs by LC-MS/MS analysis; format: ADME, organism-based; conditions: read-out: Vdss
[11] = tested on: DMS-79; test: Antiproliferative activity against human DMS79 cells after 72 hrs by MTT assay; format: functional, cell-based; conditions: DMS-79, 72 h
[12] = tested on: MV4-11; test: Induction of apoptosis in human MV4-11 cells assessed as early apoptotic cells at 100 nM after 48 hrs by annexin V/propidium iodide staining based FACS analysis (reference value: 6.31%); format: functional
[13] = tested on: MV4-11; test: Cell cycle arrest in human MV4-11 cells assessed as accumulation at S phase at 100 nM after 48 hrs by PI/RNase staining based FACS analysis (reference value: 16.50%); format: functional
[14] = tested on: MV4-11; test: Cell cycle arrest in human MV4-11 cells assessed as accumulation at G0/G1 phase after 48 hrs by PI/RNase staining based FACS analysis; format: functional
[15] = Ratio of IC50 for human WI38 cells to IC50 for human MV4-11 cells; format: toxicity; conditions: WI38 cells versus MV4-11 cells, read-out: Ratio IC50
[16] = tested on: MCF7; test: Antiproliferative activity against human MCF7 cells after 72 hrs by SRB assay; format: functional, cell-based; conditions: MCF7, 72 h
[17] = tested on: MV4-11; test: Induction of apoptosis in human MV4-11 cells assessed as necrotic cells at 10000 nM after 48 hrs by annexin V/propidium iodide staining based FACS analysis (reference value: 0.05%); format: functional
[18] = tested on: HL-60; test: Antiproliferative activity against human HL60 cells after 72 hrs by MTT assay; format: functional, cell-based; conditions: HL-60, 72 h
[19] = tested on: RS4-11; test: Antiproliferative activity against human RS4:11 cells after 72 hrs by MTT assay; format: functional, cell-based; conditions: RS4-11, 72 h
[20] = tested on: HT-29; test: Antiproliferative activity against human HT-29 cells after 72 hrs by SRB assay; format: functional, cell-based; conditions: HT-29, 72 h
[21] = tested on: MV4-11; test: Induction of apoptosis in human MV4-11 cells assessed as viable cells at 10000 nM after 48 hrs by annexin V/propidium iodide staining based FACS analysis (reference value: 90.60%); format: functional; conditions: MV4-11, 48 h, read-out: Activity
[22] = tested on: MV4-11; test: cells; conditions: Homo sapiens, MV4-11, 72 h
Description: Antiproliferative activity against human MV4-11 cells harboring FLT3-ITD mutant after 72 hrs by MTT assay

[23] = target: T1, Receptor-type tyrosine-protein kinase FLT3; test: Binding affinity to auto-inhibited human partial length wild type FLT3 (564 to 969 residues) expressed in mammalian expression system after 1 hr
[24] = Tmax in overnight fasted Sprague-Dawley rat plasma at 10 mg/kg administered via oral gavage up to 24 hrs by LC-MS/MS analysis; format: ADME, organism-based
[25] = tested on: MV4-11; test: Cell cycle arrest in human MV4-11 cells assessed as accumulation at S phase at 1000 nM after 48 hrs by PI/RNase staining based FACS analysis (reference value: 16.50%); format: functional
[26] = tested on: MV4-11; test: Induction of apoptosis in human MV4-11 cells assessed as early apoptotic cells at 1 nM after 48 hrs by annexin V/propidium iodide staining based FACS analysis (reference value: 6.31%); format: functional
[27] = tested on: MV4-11; test: Cell cycle arrest in human MV4-11 cells assessed as accumulation at G2 phase at 1 nM after 48 hrs by PI/RNase staining based FACS analysis (reference value: 13.95%); format: functional

With `Cc1cc(Nc2ncc3ncc(=O)n(-c4ccc(N)cc4)c3n2)ccc1N1CCN(C)CC1` the Activity [1] was 3.49%, the IC50 [2] was 2530 nM and the Kd [3] was 5.7 nM. It also gave a Cmax [4] of 41 ng/mL, an Activity [5] of 0.25% and a Kd [6] of 5 nM. For the same molecule, the Activity [7] was less than 1%, the Activity [8] was 9.71% and the AUC(0-inf) [9] was 119 ng·h/mL. The Vd [10] was 27.7 L/kg, the IC50 [11] was greater than 10000 nM and the Activity [12] was 23%. For the same molecule, the Activity [13] was 2.06%, the Activity [14] was “Dose-dependent effect” and the selectivity ratio [15] was 33 to 81. The IC50 [16] was greater than 10000 nM, the Activity [17] was 0.02% and the IC50 [18] was 1380 nM. The IC50 [19] was 925 nM, the IC50 [20] was 3020 nM and the viability at 10 µM [21] was 0.02%. It also gave an IC50 [22] of 51 nM, a Kd [23] of 79 nM and a Tmax [24] of 2.17 h. For the same molecule, the Activity [25] was 3.07%, the Activity [26] was 6.09% and the Activity [27] was 12.59%.
